{"source": "patent US20180221343A1", "about": "“PHARMACEUTICAL COMPOSITION FOR PREVENTING OR TREATING MACULAR DEGENERATION” (KOREA RESEARCH INSTITUTE OF CHEMICAL TECHNOLOGY, priority 2011, published 2018)", "key": {"corneal angiogenesis": {"system": "corneal angiogenesis", "assay": "Inhibitory effects against corneal angiogenesis, subconjunctival injection and eye drop-administration", "assay_type": "in vivo, Sprague Dawley rats", "details": "subconjunctival injection 20 μl plus eye drop 50 μl; KR 0.3 mg/ml, Avastin 10 mg/ml", "description": "The tests were performed by using Sprague Dawley rats (8 weeks old, male) as animals having corneal damage (15 rats for the experiment group; and 1 rat for normal group, respectively). The corneal damage was induced by applying a cotton swab coated with silver nitrate to the surface of the rat corneas, as as to induce a damage having a diameter of 2 mm in the central cornea. On the third day after inducing the corneal damages, we confirmed the establishment of corneal angiogenesis-inducing models and then subconjunctivally injected a solution (20 μl) prepared by dissolving the compound of Preparation Example 23, i.e., (2R,3R,4S)-6-amino-4-[N-(4-chlorophenyl)-N-(1H-imidazol-2-ylmethyl)amino]-3-hydroxy-2-methyl-2-dimethoxymethyl-3,4-dihydro-2H-1-benzopyran (KR-31831) in phosphate buffered saline (PBS) containing 10% PEG 400, in the concentration of 0.3 mg/ml. […] The evaluations quantifying the photographs of FIG. 1 were performed by using the Image J (NIH, USA) program and the results thereof were shown in FIG. 2.\nExcept for performing both the subconjunctival injection and the eye drop-administration of (2R,3R,4S)-6-amino-4-[N-(4-chlorophenyl)-N-(1H-imidazol-2-ylmethyl)amino]-3-hydroxy-2-methyl-2-dimethoxymethyl-3,4-dihydro-2H-1-benzopyran and Avastin, the inhibitory effects against angiogenesis were evaluated according to the same manners as in Example 1. […]"}, "VEGF receptor 2 (FLK-1)": {"system": "VEGF receptor 2 (FLK-1)", "assay": "Expression of VEGF receptor 2 (FLK-1) in corneal tissue by RT-PCR", "assay_type": "in vivo, rats", "details": "subconjunctival injection 20 μl; KR 0.3 mg/ml, Avastin 10 mg/ml", "description": "The tests were performed for confirming corneal angiogenesis as a marker. To a Trizole™ solution (200 μl), were added each corneal tissue obtained from the rats of Example 1. Total RNAs were isolated and then cDNAs were prepared by using a reverse transcriptase. Each cDNA (5 μl) was mixed with the primer set of FLK-1 and then PCR amplication was performed in a thermocycler under the following conditions; denaturation at 94° C. for 5 minutes, and then 35 cycles of denaturation at 94° C. for 20 seconds, annealing at 58° C. for 1 minute, and extension at 72° C. for 25 seconds. Each PCR product was loaded on 1% agarose gel; and the resulting ethidium bromide fluorescent bands were identified."}, "[1]": {"assay": "Retinal delivery of eye drop formulation (levels in ocular tissues and plasma)", "assay_type": "in vivo, Rats", "details": "eye drop 50 μl of Formulation Example 1", "description": "We evaluated whether the eye drop formulation containing (2R,3R,4S)-6-amino-4-[N-(4-chlorophenyl)-N-(1H-imidazol-2-ylmethyl)amino]-3-hydroxy-2-methyl-2-dimethoxymethyl-3,4-dihydro-2H-1-benzopyran is penetrated through the cornea and then delivered to the retina. Rats (8 weeks old) were used in the test; and the eye drop formulation (50 μl) prepared in the following Formulation Example 1 was dropped on each rat's eye."}, "[2]": {"system": "rat corneal epithelial wound", "assay": "Corneal Wound Healing Assay (2)", "assay_type": "in vivo, SD rats", "details": "topical 3 and 6 mg/ml every 6 hour; observed at 0 and 18 hours", "description": "SD rats (male, 8 weeks, 250 g) were used. Animal study protocol was in accordance with the Association for Research in Vision and Ophthalmology Statement for the Use of Animals in Ophthalmic and Visual Research. All animals were housed in individual cages and maintained under standard conditions (12 hour light-dark cycle).\nRats were anesthetized by Zoletil® (50 mg/kg, Tiletamina 25 mg, Zolazepam 25 mg; Vibrac, Carros, France) and Rompun® (10 mg/kg, Bayer, France). The cornea was anesthetized by topical 0.5% proparacaine (Alcaine®; Alcon, Fort Worth, Tex., USA). After applying 0.5% proparacaine drops, 5.0 mm Trephine Blade® (Katena, Denville, N.J., USA) was placed and fixed firmly on the corneal surface. One drop of 20% ethanol were put into the tephine well and left in place for 30 seconds, then absorbed with a dry cellulose sponge (Merocel®; Medtronic Solan, Jacksonville, Fla., USA) and irrigated with normal saline. And the epithelium was removed in 6.0 mm diameter.\nThe drugs were each topically applied in 3 mg/ml (0.3%) and 6 mg/ml (0.6%) concentrations (in 5% DMSO, 10% PEG (Mw 400) and 85% saline (0.9% NaCl)) in every 6 hour, respectively.\nThe corneal wounds were captured by digital camera under cobalt blue light and the defect area was analyzed by Image J software (Ver 4.1, NIH). The significance between Vehicle and each group was analyzed by paired T-test, and the significance of the test was analyzed by One Way ANOVA analysis."}}}
{"molecule": "COC(OC)[C@]1(C)Oc2ccc(N)cc2[C@H](N(Cc2ncc[nH]2)c2ccc(Cl)cc2)[C@H]1O", "note": "[KR-31831, (2R,3R,4S)-6-amino-4-[N-(4-chlorophenyl)-N-(1H-imidazol-2-ylmethyl)amino]-3-hydroxy-2-methyl-2-dimethoxymethyl-3,4-dihydro-2H-1-benzopyran]", "values": [{"measurement": "angiogenesis in comparison with the angiogenesis (100%) of the control group", "setting": "corneal angiogenesis", "result": "25.1±10.8", "unit": "%"}, {"measurement": "FLK-1 expression in the cornea (control group 100%)", "setting": "VEGF receptor 2 (FLK-1)", "result": "about 30%"}, {"measurement": "level in Aqueous humor", "setting": "[1]; 30 minutes", "result": 1250, "unit": "ng/mL"}, {"measurement": "level in Retina", "setting": "[1]; 30 minutes", "result": 846, "unit": "ng/mL"}, {"measurement": "level in Vitreous humor", "setting": "[1]; 30 minutes", "result": 195, "unit": "ng/mL"}, {"measurement": "level in Aqueous humor", "setting": "[1]; 120 minutes", "result": 827, "unit": "ng/mL"}, {"measurement": "level in Plasma", "setting": "[1]; 120 minutes", "result": 0.9, "unit": "ng/mL"}, {"measurement": "level in Retina", "setting": "[1]; 120 minutes", "result": 225, "unit": "ng/mL"}, {"measurement": "level in Vitreous humor", "setting": "[1]; 120 minutes", "result": 194, "unit": "ng/mL"}, {"measurement": "inhibitory effect on normal healing of rat corneal epithelial wound", "setting": "[2]", "result": "did not show inhibitory effect"}]}
